The test has as its system P388 leukemia ip, CD2F1 mice, survival T/C. Kind of test: NCI In Vivo Anticancer Drug Screen. Data for tumor model P388 Leukemia (intraperitoneal) in CD2F1 (CDF1) mice. The conditions noted are these: endpoint: median survival time, higher = longer survival. In outline: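 Mice carrying the transplanted tumor received test compound or vehicle. Survival was recorded in each group, and the value is the treated-group measurement divided by that of the vehicle-treated control group.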

Where [1] appears, read: dose: 60.0 mg/kg/injection, schedule: Q01DX005 (ip), vehicle: saline with Tween-80.
[2] abbreviates: dose: 120.0 mg/kg/injection, schedule: Q01DX005 (ip), vehicle: saline with Tween-80.
The mark [3] stands for this setting: dose: 240.0 mg/kg/injection, schedule: Q01DX005 (ip), vehicle: saline with Tween-80.
The mark [4] stands for this setting: dose: 50.0 mg/kg/injection, schedule: Q01DX005 (ip), vehicle: saline with Tween-80.
Where [5] appears, read: dose: 100.0 mg/kg/injection, schedule: Q01DX005 (ip), vehicle: saline with Tween-80.
[6] abbreviates: dose: 6.25 mg/kg/injection, schedule: Q01DX009 (ip), vehicle: saline with Tween-80.
The mark [7] stands for this setting: dose: 12.5 mg/kg/injection, schedule: Q01DX009 (ip), vehicle: saline with Tween-80.
The mark [8] stands for this setting: dose: 25.0 mg/kg/injection, schedule: Q01DX009 (ip), vehicle: saline with Tween-80.
Setting [9] is: dose: 50.0 mg/kg/injection, schedule: Q01DX009 (ip), vehicle: saline.
The mark [10] stands for this setting: dose: 100.0 mg/kg/injection, schedule: Q01DX009 (ip), vehicle: saline.
Setting [11] is: dose: 200.0 mg/kg/injection, schedule: Q01DX009 (ip), vehicle: saline.
The mark [12] stands for this setting: dose: 50.0 mg/kg/injection, schedule: Q01DX009 (ip), vehicle: saline with Tween-80.
[13] abbreviates: dose: 100.0 mg/kg/injection, schedule: Q01DX009 (ip), vehicle: saline with Tween-80.

Values joined by “and” are separate entries in the source; they are usually repeats but may differ in a detail not shown here. Equal values may be shown once. Inconclusive results and toxic doses are left out.

On to `COc1cc(C(C)c2cc3c(cc2O)OCO3)cc(OC)c1OC` (centres undefined), for which the T/C (dose: 15.0 mg/kg/injection, schedule: Q01DX005 (ip), vehicle: saline with Tween-80) is 100 % of control; the T/C (dose: 30.0 mg/kg/injection, schedule: Q01DX005 (ip), vehicle: saline with Tween-80) was 98 % of control; the T/C under setting [1] is 103 % of control and 107 % of control and 108 % of control; the T/C under setting [2] is 100 % of control and 114 % of control and 122 % of control; the T/C under setting [3] is 123 % of control; the T/C (dose: 480.0 mg/kg/injection, schedule: Q01DX005 (ip), vehicle: saline with Tween-80) was 86 % of control.
`CSCCC([NH-])C(=O)O.CSCCC([NH-])C(=O)O.[Zn+2]` (centres undefined): the T/C was 110 % of control under setting [4] and 111 % of control under setting [5].
As for `CCCCCCCCSC1=C(Cl)C(=O)C(OC)=C(OC)C1=O`, the T/C reads like this: (dose: 1.5 mg/kg/injection, schedule: Q04DX002 (ip), vehicle: saline with Tween-80) 101 % of control; (dose: 3.0 mg/kg/injection, schedule: Q04DX002 (ip), vehicle: saline with Tween-80) 99 % of control; (dose: 6.0 mg/kg/injection, schedule: Q04DX002 (ip), vehicle: saline with Tween-80) 99 % of control; under setting [6], 101 % of control; (dose: 12.0 mg/kg/injection, schedule: Q04DX002 (ip), vehicle: saline with Tween-80) 108 % of control; under setting [7], 105 % of control. For the same molecule, the T/C by setting is: (dose: 24.0 mg/kg/injection, schedule: Q04DX002 (ip), vehicle: saline with Tween-80) 108 % of control; under setting [8], 111 % of control; (dose: 48.0 mg/kg/injection, schedule: Q04DX002 (ip), vehicle: saline with Tween-80) 107 % of control.
Regarding `CC1(C)C(C=O)=CCC1CC(N)=O` (centres undefined), the T/C was 117 % of control under setting [1] and 111 % of control under setting [2].
In the case of `Clc1ccc2nc(CI)c(CI)nc2c1`, the T/C is, setting by setting: (dose: 5.5 mg/kg/injection, schedule: Q01DX009 (ip), vehicle: saline with Tween-80) 104 % of control; (dose: 8.3 mg/kg/injection, schedule: Q01DX009 (ip), vehicle: saline with Tween-80) 95 % of control; under setting [7], 100 % of control; (dose: 18.7 mg/kg/injection, schedule: Q01DX009 (ip), vehicle: saline with Tween-80) 118 % of control; (dose: 25.0 mg/kg/injection, schedule: Q04DX003 (ip), vehicle: saline with Tween-80) 118 % of control; (dose: 50.0 mg/kg/injection, schedule: Q04DX003 (ip), vehicle: saline with Tween-80) 118 % of control. Also, the T/C (dose: 100.0 mg/kg/injection, schedule: Q04DX003 (ip), vehicle: saline with Tween-80) is 122 % of control.
Consider `CC(N)=S=O`, for which the T/C (dose: 15.0 mg/kg/injection, schedule: Q01DX005 (ip), vehicle: saline) was 112 % of control; the T/C (dose: 30.0 mg/kg/injection, schedule: Q01DX005 (ip), vehicle: saline) was 103 % of control; the T/C (dose: 60.0 mg/kg/injection, schedule: Q01DX005 (ip), vehicle: saline) is 106 % of control and 94 % of control.
In the case of `CN(C)/C=C/C(=O)c1ccccc1`, the T/C reads like this: under setting [1], 107 % of control; under setting [2], 101 % of control; under setting [3], 102 % of control.
In the case of `[Se]=P(N1CCOCC1)(N1CCOCC1)N1CCOCC1`, the T/C is, setting by setting: (dose: 13.75 mg/kg/injection, schedule: Q01DX001 (ip), vehicle: Klucel (hydroxypropylcellulose) (HPC)) 101 % of control; (dose: 27.5 mg/kg/injection, schedule: Q01DX001 (ip), vehicle: Klucel (hydroxypropylcellulose) (HPC)) 104 % of control.
With `Cc1ccc(=O)c2ccsc2c1`, the T/C was 105 % of control (dose: 100.0 mg/kg/injection, schedule: Q04DX003 (ip), vehicle: Klucel (hydroxypropylcellulose) (HPC)) and 94 % of control (dose: 200.0 mg/kg/injection, schedule: Q04DX003 (ip), vehicle: Klucel (hydroxypropylcellulose) (HPC)).
`CCC[As](CCC)SC1OC(C2COC(C)(C)O2)C2OC(C)(C)OC12` (centres undefined): the T/C is, setting by setting: (dose: 12.5 mg/kg/injection, schedule: Q01DX009 (ip), vehicle: distilled water + Tween-80) 100 % of control; (dose: 25.0 mg/kg/injection, schedule: Q01DX009 (ip), vehicle: distilled water + Tween-80) 110 % of control.
Consider `O=c1c2ccccc2nc(-c2ccccc2Cl)n1/N=C/c1cccc([N+](=O)[O-])c1`, for which the T/C is, setting by setting: (dose: 0.78 mg/kg/injection, schedule: Q01DX009 (ip), vehicle: saline with Tween-80) 99 % of control; (dose: 1.56 mg/kg/injection, schedule: Q01DX009 (ip), vehicle: saline with Tween-80) 92 % of control; (dose: 3.12 mg/kg/injection, schedule: Q01DX009 (ip), vehicle: saline with Tween-80) 91 % of control.
With `O=C(Nc1cccc(Cl)c1)Nn1cnnc1`, the T/C under setting [9] is 101 % of control, the T/C under setting [10] is 97 % of control and the T/C under setting [11] was 91 % of control.
Consider `N#CCCSC(=S)C1CCCC1=N` (centres undefined), for which the T/C reads like this: under setting [7], 114 % of control and 123 % of control; under setting [8], 110 % of control and 116 % of control; under setting [12], 104 % of control and 109 % of control; under setting [13], 102 % of control and 116 % of control.
Regarding `COc1ccc(/C=C2/SC(=S)N(C(C)C)C2=O)cc1OC`, the T/C reads like this: under setting [6], 88 % of control; under setting [7], 90 % of control; under setting [8], 94 % of control; under setting [12], 88 % of control.
Consider `O=C1C=C2CCC3=CC(=O)C(=CC3=O)CCC(=C1)C2=O`, for which the T/C runs as follows: (dose: 100.0 mg/kg/injection, schedule: Q04DX002 (ip), vehicle: Klucel (hydroxypropylcellulose) (HPC)) 97 % of control; (dose: 200.0 mg/kg/injection, schedule: Q04DX002 (ip), vehicle: Klucel (hydroxypropylcellulose) (HPC)) 97 % of control.
For `ON=C1CCC(=NO)CC1`, the T/C (dose: 25.0 mg/kg/injection, schedule: Q04DX003 (ip), vehicle: saline) is 101 % of control; the T/C (dose: 50.0 mg/kg/injection, schedule: Q04DX003 (ip), vehicle: saline) was 100 % of control; the T/C (dose: 100.0 mg/kg/injection, schedule: Q04DX003 (ip), vehicle: saline) was 95 % of control; the T/C (dose: 200.0 mg/kg/injection, schedule: Q04DX003 (ip), vehicle: saline) was 107 % of control; the T/C (dose: 400.0 mg/kg/injection, schedule: Q04DX003 (ip), vehicle: saline) was 101 % of control.
Consider `CC(C)=C1NC(=O)NC1=O`, for which the T/C is, setting by setting: (dose: 50.0 mg/kg/injection, schedule: Q01DX005 (ip), vehicle: Klucel (hydroxypropylcellulose) (HPC)) 101 % of control; (dose: 100.0 mg/kg/injection, schedule: Q01DX005 (ip), vehicle: Klucel (hydroxypropylcellulose) (HPC)) 101 % of control; (dose: 200.0 mg/kg/injection, schedule: Q01DX005 (ip), vehicle: Klucel (hydroxypropylcellulose) (HPC)) 102 % of control.
With `O=c1[nH]cc(Cn2cccc3c(=O)ncnc2-3)c(=O)[nH]1`, the T/C (dose: 100.0 mg/kg/injection, schedule: Q01DX001 (ip), vehicle: suspension in saline) was 93 % of control and the T/C (dose: 200.0 mg/kg/injection, schedule: Q01DX001 (ip), vehicle: suspension in saline) was 102 % of control.
For the molecule `O=C(NC(=O)C(F)(F)C(F)(F)C(F)(F)F)Nc1cccc(F)c1`, the T/C reads like this: under setting [12], 100 % of control; under setting [13], 100 % of control; (dose: 200.0 mg/kg/injection, schedule: Q01DX009 (ip), vehicle: saline with Tween-80) 100 % of control.
As to `O=P(OCC(F)(F)F)(OCC(F)(F)F)c1ccccc1`, the T/C runs as follows: under setting [4], 102 % of control; under setting [5], 101 % of control; (dose: 200.0 mg/kg/injection, schedule: Q01DX005 (ip), vehicle: saline with Tween-80) 96 % of control.
For `Oc1ccccc1C=Nc1ccc(Cl)cn1`, the T/C by setting is: under setting [9], 99 % of control; under setting [10], 100 % of control; under setting [11], 107 % of control.
Turning to `CCCCCC(=O)NC(Cc1ccc(N(CCCl)CCCl)cc1)C(=O)O` (centres undefined), the T/C reads like this: (dose: 1.3 mg/kg/injection, schedule: Q03HX008 (ip), vehicle: saline) 100 % of control; (dose: 1.32 mg/kg/injection, schedule: Q01DX009 (ip), vehicle: saline) 109 % of control; (dose: 2.6 mg/kg/injection, schedule: Q03HX008 (ip), vehicle: saline) 110 % of control; (dose: 2.65 mg/kg/injection, schedule: Q01DX009 (ip), vehicle: saline) 113 % of control; (dose: 5.3 mg/kg/injection, schedule: Q03HX008 (ip), vehicle: saline) 120 % of control; (dose: 21.2 mg/kg/injection, schedule: Q03HX008 (ip), vehicle: saline) 150 % of control.
